Laboratory results from US8338565B2, “Macrocyclic compounds for inhibition of tumor necrosis factor alpha” (Ensemble Therapeutics Corporation, priority 2008, dated 2012).
Numbered stars: 1 amine (or outer) side, 2 acyl side, 3 side chain; on linkers, the order of the positions; unused ones are H or OH. Bridge positions count the residues as written; N and C are the ends. Square brackets hold non-standard residues; d marks the D form. Peptide text beside a SMILES is read from it. * marks the point of attachment. Phe(4-CF3) = N[C@@H](Cc1ccc(C(F)(F)F)cc1)C(=O)O; Phe(4-COOH) = N[C@@H](Cc1ccc(C(=O)O)cc1)C(=O)O; Bip = N[C@@H](Cc1ccc(-c2ccccc2)cc1)C(=O)O; dBip = N[C@H](Cc1ccc(-c2ccccc2)cc1)C(=O)O; Phe(4-NH2) = Nc1ccc(C[C@H](N)C(=O)O)cc1; dPhe(2-Cl) = N[C@H](Cc1ccccc1Cl)C(=O)O; d(hPhe) = N[C@H](CCc1ccccc1)C(=O)O; Malonyl = O=C(CC(=O)[*:2])[*:1]; d4Pal = N[C@H](Cc1ccncc1)C(=O)O; d2Thi = N[C@H](Cc1cccs1)C(=O)O; d3Thi = N[C@H](Cc1ccsc1)C(=O)O; Suc = O=C(CCC(=O)[*:2])[*:1]; Dap = NC[C@H](N)C(=O)O; X1 = O=C(O)C1CCN(*)C1; βAla = NCCC(=O)O

molecular target: T1, TNFα / TNFα receptor (TNFα R1/Fc) (Homo sapiens, UniProt P01375); test: Inhibition of binding of TNFα to the TNFα receptor (plate ELISA competition); conditions: Activity (IC50, inhibition of TNFα binding to TNFα R1/Fc), Table 2
T1 construct: purchased R&D Systems
Method in brief: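 Plates were coated with TNFα at 15 nM. Test compound and 8.33 nM receptor-Fc (PBST, 2% DMSO) were first mixed in solution for 30 min at room temperature, then transferred to the plates for another 30 min. Competition was read by absorbance at 450 nm after HRP anti-human IgG Fc detection with TMB.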

T1 sequence (P01375 77-233 limits assumed, species assumed): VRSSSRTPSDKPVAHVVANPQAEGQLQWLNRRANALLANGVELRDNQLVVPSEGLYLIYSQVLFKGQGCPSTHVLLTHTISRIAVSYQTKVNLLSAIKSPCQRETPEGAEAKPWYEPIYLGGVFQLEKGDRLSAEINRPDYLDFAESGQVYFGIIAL

Structure (SMILES)	IC50
O=C1COc2ccc(cc2)C[C@@H](C(=O)N[C@@H](Cc2ccccc2)c2nnn[nH]2)NC(=O)[C@H](Cc2ccccc2)NC(=O)[C@@H](Cc2ccc(-c3ccccc3)cc2)NC(=O)[C@H](Cc2cccs2)N1 [Compound 590]	< 10 µM
O=C1COc2ccc(cc2)C[C@H](C(=O)N[C@@H](Cc2ccccc2)C(=O)O)NC(=O)[C@@H](CCc2ccccc2)NC(=O)[C@H](Cc2ccc(-c3ccccc3)cc2)NC(=O)[C@@H](Cc2cccs2)N1 [Compound 561]	< 10 µM

same assay, conditions: Table 2; read-out: Activity (IC50, inhibition of TNFα binding to TNFα R1/Fc)

Structure (SMILES)	IC50
O=C(O)[C@@H]1Cc2ccc(cc2)NC(=O)[C@H](O)[C@@H](O)C(=O)N[C@H](Cc2ccc(C(F)(F)F)cc2)C(=O)N[C@@H](Cc2ccc(-c3ccccc3)cc2)C(=O)N[C@H](Cc2ccccc2)C(=O)N1 [Compound 263]	> 100 µM
O=C1CCC(=O)N[C@H](Cc2cccs2)C(=O)N[C@@H](Cc2ccc(-c3ccccc3)cc2)C(=O)N[C@H](Cc2ccc(O)cc2)C(=O)N[C@H](C(=O)O)Cc2ccc(cc2)N1 [Compound 59] ([d2Thi][Bip][dY][Phe(4-NH2)]-OH; linker N-4 via Suc)	> 100 µM
NCCCC[C@H](NC(=O)[C@@H]1Cc2ccc(cc2)NC(=O)[C@H](O)[C@@H](O)C(=O)N[C@H](Cc2cccs2)C(=O)N[C@@H](Cc2ccc(-c3ccccc3)cc2)C(=O)N[C@H](Cc2ccccc2)C(=O)N1)C(=O)O [Compound 296]	30 to 100 µM
O=C(O)CCC(=O)N[C@H]1CNC(=O)c2ccc(cc2)C[C@@H](C(=O)O)NC(=O)[C@@H](Cc2ccccc2)NC(=O)[C@H](Cc2ccc(-c3ccccc3)cc2)NC(=O)[C@@H](CCc2ccccc2)NC1=O [Compound 267] (Suc-[Dap][d(hPhe)][Bip][dF][Phe(4-COOH)]-OH; lactam 1-5)	> 100 µM
O=C1CC(=O)N[C@H](Cc2cccs2)C(=O)N[C@@H](Cc2ccc(-c3ccccc3)cc2)C(=O)N[C@H](Cc2ccccc2)C(=O)N[C@H](C(=O)O)Cc2ccc(cc2)N1 [Compound 5] ([d2Thi][Bip][dF][Phe(4-NH2)]-OH; linker N-4 via Malonyl)	30 to 100 µM
O=C1COc2ccc(cc2)C[C@@H](C(=O)O)NC(=O)[C@@H](CCc2ccccc2)NC(=O)[C@H](Cc2ccc(C(F)(F)F)cc2)NC(=O)[C@@H](CCc2ccccc2)N1 [Compound 151]	30 to 100 µM
CC(C)(NC(=O)[C@@H]1Cc2ccc(cc2)NC(=O)[C@H](O)[C@@H](O)C(=O)N[C@H](Cc2cccs2)C(=O)N[C@@H](Cc2ccc(-c3ccccc3)cc2)C(=O)N[C@H](Cc2ccccc2)C(=O)N1)C(=O)O [Compound 176]	> 100 µM
O=C(O)[C@@H]1Cc2ccc(cc2)NC(=O)[C@H](O)[C@@H](O)C(=O)N[C@@H](Cc2cccs2)C(=O)N[C@H](Cc2ccc(-c3ccccc3)cc2)C(=O)N[C@H](Cc2ccccc2)C(=O)N1 [Compound 272]	> 100 µM
O=C1CCC(=O)N[C@H](Cc2ccsc2)C(=O)N[C@@H](Cc2ccc(-c3ccccc3)cc2)C(=O)N[C@H](Cc2ccccc2)C(=O)N[C@H](C(=O)O)Cc2ccc(cc2)N1 [Compound 122] ([d3Thi][Bip][dF][Phe(4-NH2)]-OH; linker N-4 via Suc)	30 to 100 µM
NCCCC[C@H](NC(=O)[C@@H]1Cc2ccc(cc2)NC(=O)[C@H](O)[C@@H](O)C(=O)N[C@H](Cc2cccs2)C(=O)N[C@@H](Cc2ccc(-c3ccccc3)cc2)C(=O)N[C@H](Cc2ccccc2)C(=O)N1)C(=O)O [Compound 360]	> 100 µM
COc1cccc(-c2ccc(C[C@@H]3NC(=O)[C@@H](CCc4ccccc4)NC(=O)CCC(=O)Nc4ccc(cc4)C[C@@H](C(=O)O)NC(=O)[C@@H](Cc4ccccc4)NC3=O)cc2)c1 [Compound 110]	10 to 30 µM
CC(=O)N[C@@H]1CC(=O)Nc2ccc(cc2)C[C@@H](C(=O)O)NC(=O)[C@@H](Cc2ccccc2)NC(=O)[C@H](Cc2ccc(-c3ccccc3)cc2)NC(=O)[C@@H](Cc2cccs2)NC1=O [Compound 376] (Ac-[dD][d2Thi][Bip][dF][Phe(4-NH2)]-OH; lactam 1-5)	10 to 30 µM
O=C(O)[C@H](Cc1ccccc1)NC(=O)[C@@H]1Cc2ccc(cc2)NC(=O)[C@H](O)[C@@H](O)C(=O)N[C@@H](Cc2cccs2)C(=O)N[C@H](Cc2ccc(Br)cc2)C(=O)N[C@@H](Cc2ccccc2)C(=O)N1 [Compound 439]	30 to 100 µM
N[C@H]1CC(=O)Nc2ccc(cc2)C[C@@H](C(=O)O)NC(=O)[C@@H](Cc2ccccc2)NC(=O)[C@H](Cc2ccc(-c3ccccc3)cc2)NC(=O)[C@@H](Cc2cccs2)NC1=O [Compound 371] (H-D[d2Thi][Bip][dF][Phe(4-NH2)]-OH; lactam 1-5)	> 100 µM
O=C(O)CN(Cc1ccccc1)C(=O)[C@@H]1Cc2ccc(cc2)OCC(=O)N[C@@H](Cc2cccs2)C(=O)N[C@@H](Cc2ccc(-c3ccccc3)cc2)C(=O)N[C@@H](Cc2ccccc2)C(=O)N1 [Compound 340]	< 10 µM
O=C1CCC(=O)N[C@H](CCc2ccccc2)C(=O)N[C@@H](Cc2ccc(-c3cccc(F)c3)cc2)C(=O)N[C@H](Cc2ccccc2)C(=O)N[C@H](C(=O)O)Cc2ccc(cc2)N1 [Compound 181]	10 to 30 µM
O=C(O)[C@H](Cc1ccccc1)NC(=O)[C@@H]1Cc2ccc(cc2)NC(=O)[C@H](O)[C@@H](O)C(=O)N[C@@H](Cc2cccs2)C(=O)N[C@H](Cc2ccc(-c3ccccc3)cc2)C(=O)N[C@@H](CCc2ccccc2)C(=O)N1 [Compound 433]	> 100 µM
O=C1CCC(=O)N[C@H](CCc2ccccc2)C(=O)N[C@@H](Cc2ccc(-c3ccccc3)cc2)C(=O)N[C@H](Cc2ccccc2)C(=O)N[C@H](C(=O)N2CCC(C(=O)O)C2)Cc2ccc(cc2)N1 (stereo partly shown) [Compound 353] ([d(hPhe)][Bip][dF][Phe(4-NH2)]-X1; linker N-4 via Suc)	> 100 µM
O=C1CCC(=O)N[C@H](CCc2ccccc2)C(=O)N[C@@H](Cc2ccc(C(F)(F)F)cc2)C(=O)N[C@H](Cc2ccccc2Cl)C(=O)N[C@H](C(=O)O)Cc2ccc(cc2)N1 [Compound 226] ([d(hPhe)][Phe(4-CF3)][dPhe(2-Cl)][Phe(4-NH2)]-OH; linker N-4 via Suc)	10 to 30 µM
O=C1CCC(=O)N[C@H](Cc2ccncc2)C(=O)N[C@@H](Cc2ccc(-c3ccccc3)cc2)C(=O)N[C@H](Cc2ccccc2)C(=O)N[C@H](C(=O)O)Cc2ccc(cc2)N1 [Compound 127] ([d4Pal][Bip][dF][Phe(4-NH2)]-OH; linker N-4 via Suc)	> 100 µM
O=C1COc2ccc(cc2)C[C@@H](C(=O)O)NC(=O)[C@@H]2CCCN2C(=O)[C@H](Cc2ccc(-c3ccccc3)cc2)NC(=O)[C@H](Cc2cccs2)N1 [Compound 255]	> 100 µM
N#Cc1ccccc1C[C@H]1NC(=O)[C@H](O)[C@@H](O)C(=O)Nc2ccc(cc2)C[C@@H](C(=O)O)NC(=O)[C@@H](Cc2ccccc2)NC(=O)[C@H](Cc2ccc(-c3ccccc3)cc2)NC1=O [Compound 314]	10 to 30 µM

Further lines, results first:

IC50	Structure (SMILES)
10 to 30 µM	CC(C)[C@H](NC(=O)[C@@H]1Cc2ccc(cc2)OCC(=O)N[C@@H](Cc2cccs2)C(=O)N[C@H](Cc2ccc(-c3ccccc3)cc2)C(=O)N[C@@H](CCc2ccccc2)C(=O)N1)C(=O)O [Compound 487]
< 10 µM	O=C1COc2ccc(cc2)C[C@@H](C(=O)O)NC(=O)[C@H](Cc2cccs2)NC(=O)[C@@H](Cc2ccc(-c3ccccc3)cc2)NC(=O)[C@H](Cc2ccncc2)N1 [Compound 652]
< 10 µM	COc1cccc(C[C@@H]2NC(=O)COc3ccc(cc3)C[C@@H](C(=O)O)NC(=O)[C@H](CCc3ccccc3)NC(=O)[C@@H](Cc3ccc(-c4ccccc4)cc3)NC2=O)c1 [Compound 680]
< 10 µM	O=C1COc2ccc(cc2)C[C@@H](C(=O)N[C@H](CCc2ccccc2)C(=O)O)NC(=O)[C@H](CCc2ccccc2)NC(=O)[C@@H](Cc2ccc(-c3ccccc3)cc2)NC(=O)[C@H](Cc2ccc(-c3ccncc3)cc2)N1 [Compound 624]
> 100 µM	CC(C)(C)Oc1ccc(C[C@@H]2NC(=O)COc3ccc(cc3)C[C@@H](C(=O)O)NC(=O)[C@H](Cc3ccccc3)NC(=O)[C@H](Cc3ccc(-c4ccccc4)cc3)NC2=O)cc1 [Compound 489]
> 100 µM	O=C1COc2ccc(cc2)C[C@@H](C(=O)O)NC(=O)[C@@H](CCc2ccccc2)NC(=O)[C@H](Cc2ccc(-c3ccccc3)cc2)NC(=O)[C@@H](Cc2ccc(O)cc2)N1 [Compound 521]
< 10 µM	C[C@@H](NC(=O)[C@@H]1Cc2ccc(cc2)OCC(=O)N[C@@H](Cc2ccc(-c3ccccc3)cc2)C(=O)N[C@H](Cc2ccc(-c3ccccc3)cc2)C(=O)N[C@@H](CCc2ccccc2)C(=O)N1)C(=O)O [Compound 577]
< 10 µM	O=C1COc2ccc(cc2)C[C@@H](C(=O)O)NC(=O)[C@H](Cc2ccc(-c3cccnc3)cc2)NC(=O)[C@@H](Cc2ccc(-c3ccccc3)cc2)NC(=O)[C@H](Cc2cccs2)N1 [Compound 633]
> 100 µM	C[C@H](NC(=O)[C@@H]1Cc2ccc(cc2)NC(=O)CCC(=O)N[C@H](Cc2ccccc2)C(=O)N[C@@H](Cc2ccc(-c3ccccc3)cc2)C(=O)N[C@H](CCc2ccccc2)C(=O)N1)C(=O)O [Compound 458] ([dF][Bip][d(hPhe)][Phe(4-NH2)]A-OH; linker N-4 via Suc)
10 to 30 µM	O=C(O)CNC(=O)[C@@H]1Cc2ccc(cc2)OCC(=O)N[C@@H](Cc2ccc(-c3ccccc3)cc2)C(=O)N[C@H](Cc2ccc(-c3ccccc3)cc2)C(=O)N[C@@H](CCc2ccccc2)C(=O)N1 [Compound 570]
> 100 µM	O=C1CCNC(=O)c2ccc(cc2)C[C@@H](C(=O)O)NC(=O)[C@H](Cc2ccccc2)NC(=O)[C@@H](Cc2ccc(-c3ccccc3)cc2)NC(=O)[C@@H](CCc2ccccc2)N1 [Compound 466] ([βAla][d(hPhe)][dBip]F[Phe(4-COOH)]-OH; lactam N-5)
< 10 µM	O=C1COc2ccc(cc2)C[C@@H](C(=O)O)NC(=O)[C@H](Cc2ccccc2C(F)(F)F)NC(=O)[C@@H](Cc2ccc(-c3ccccc3)cc2)NC(=O)[C@H](Cc2ccncc2)N1 [Compound 649]
> 100 µM	O=C1COc2ccc(cc2)C[C@@H](C(=O)O)NC(=O)[C@H](Cc2ccc(F)cc2)NC(=O)[C@@H](Cc2ccc(-c3ccccc3)cc2)NC(=O)[C@H](Cc2cccs2)N1 [Compound 627]
